According to article PMC6151782, “Synthesis, In Vitro α-Glucosidase Inhibitory Activity and Molecular Docking Studies of Novel Benzothiazole-Triazole Derivatives” (Molecules : A Journal of Synthetic Chemistry and Natural …, 2017):
pIC50: −log10 of the molar value.

Tests used:
[1] = biological target: T1, Baker’s yeast α-glucosidase enzyme (Saccharomyces cerevisiae, UniProt P53341); test: biochemical
T1 construct: purchased
Excerpt: The sample solution was replaced by DMSO as a control. Acarbose was used as a positive control.

T1 sequence (P53341 whole entry): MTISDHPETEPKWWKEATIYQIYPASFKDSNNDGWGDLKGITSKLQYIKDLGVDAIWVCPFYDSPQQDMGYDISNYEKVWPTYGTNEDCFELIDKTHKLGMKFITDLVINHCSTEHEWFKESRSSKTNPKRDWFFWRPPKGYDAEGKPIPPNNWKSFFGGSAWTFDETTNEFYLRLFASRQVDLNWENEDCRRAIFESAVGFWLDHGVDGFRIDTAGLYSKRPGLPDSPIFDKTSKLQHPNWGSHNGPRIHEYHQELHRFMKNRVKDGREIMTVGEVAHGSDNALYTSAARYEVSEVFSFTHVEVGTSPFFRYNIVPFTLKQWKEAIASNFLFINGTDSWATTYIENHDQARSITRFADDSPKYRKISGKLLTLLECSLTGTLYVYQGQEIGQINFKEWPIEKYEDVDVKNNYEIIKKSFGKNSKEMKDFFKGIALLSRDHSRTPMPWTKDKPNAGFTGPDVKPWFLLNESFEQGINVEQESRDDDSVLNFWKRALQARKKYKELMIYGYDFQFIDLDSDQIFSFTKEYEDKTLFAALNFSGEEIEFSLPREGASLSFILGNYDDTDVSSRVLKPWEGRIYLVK

Row | SMILES | melting point | pIC50 [1]
1 | Brc1ccc(Cn2cc(CSc3nc4ccccc4s3)nn2)cc1 [Compound 6a, 2-(((1-(4-Bromobenzyl)-1H-1,2,3-triazol-4-yl)methyl)thio)benzo[d]thiazole] | 112 to 114 °C | 4.54
2 | Clc1ccccc1Cn1cc(CSc2nc3ccccc3s2)nn1 [Compound 6b, 2-(((1-(2-Chlorobenzyl)-1H-1,2,3-triazol-4-yl)methyl)thio)benzo[d]thiazole] | 110 to 111 °C | < 4.00
3 | Brc1ccccc1Cn1cc(CSc2nc3ccccc3s2)nn1 [Compound 6c, 2-(((1-(2-Bromobenzyl)-1H-1,2,3-triazol-4-yl)methyl)thio)benzo[d]thiazole] | 104 to 106 °C | 4.43
4 | Fc1cccc(Cn2cc(CSc3nc4ccccc4s3)nn2)c1 [Compound 6d, 2-(((1-(3-Fluorobenzyl)-1H-1,2,3-triazol-4-yl)methyl)thio)benzo[d]thiazole] | 112 to 114 °C | 4.21
5 | Clc1ccc(Cn2cc(CSc3nc4ccccc4s3)nn2)cc1 [Compound 6e, 2-(((1-(4-Chlorobenzyl)-1H-1,2,3-triazol-4-yl)methyl)thio)benzo[d]thiazole] | 119 to 120 °C | 4.56
6 | Fc1ccccc1Cn1cc(CSc2nc3ccccc3s2)nn1 [Compound 6f, 2-(((1-(2-Fluorobenzyl)-1H-1,2,3-triazol-4-yl)methyl)thio)benzo[d]thiazole] | 86 to 88 °C | < 4.00
7 | c1ccc(Cn2cc(CSc3nc4ccccc4s3)nn2)cc1 [Compound 6g, 2-(((1-Benzyl-1H-1,2,3-triazol-4-yl)methyl)thio)benzo[d]thiazole] | 109 to 110 °C | < 4.00
8 | CC(C)(C)c1ccc(Cn2cc(CSc3nc4ccccc4s3)nn2)cc1 [Compound 6i, 2-(((1-(4-(Tert-butyl)benzyl)-1H-1,2,3-triazol-4-yl)methyl)thio)benzo[d]thiazole] | 77 to 78 °C | 4.53
9 | Fc1ccccc1Cn1cc(CSc2nc3cc(Cl)ccc3s2)nn1 [Compound 6j, 5-Chloro-2-(((1-(2-fluorobenzyl)-1H-1,2,3-triazol-4-yl)methyl)thio)benzo[d]thiazole] | 115 to 117 °C | 4.34
10 | Clc1ccc2sc(SCc3cn(Cc4ccccc4Br)nn3)nc2c1 [Compound 6k, 2-(((1-(2-Bromobenzyl)-1H-1,2,3-triazol-4-yl)methyl)thio)-5-chlorobenzo[d]thiazole] | 119 to 120 °C | 4.32
11 | Clc1ccc2sc(SCc3cn(Cc4ccccc4Cl)nn3)nc2c1 [Compound 6l, 5-Chloro-2-(((1-(2-chlorobenzyl)-1H-1,2,3-triazol-4-yl)methyl)thio)benzo[d]thiazole] | 128 to 130 °C | 4.47
12 | Clc1ccc(Cn2cc(CSc3nc4cc(Cl)ccc4s3)nn2)cc1 [Compound 6m, 5-Chloro-2-(((1-(4-chlorobenzyl)-1H-1,2,3-triazol-4-yl)methyl)thio)benzo[d]thiazole] | 111 to 112 °C | 4.55
13 | Clc1ccc2sc(SCc3cn(Cc4ccc(Br)cc4)nn3)nc2c1 [Compound 6n, 2-(((1-(4-Bromobenzyl)-1H-1,2,3-triazol-4-yl)methyl)thio)-5-chlorobenzo[d]thiazole] | 114 to 116 °C | 4.55
14 | Clc1cc(Cl)cc(Cn2cc(CSc3nc4cc(Cl)ccc4s3)nn2)c1 [Compound 6o, 5-Chloro-2-(((1-(3,5-dichlorobenzyl)-1H-1,2,3-triazol-4-yl)methyl)thio)benzo[d]thiazole] | 124 to 126 °C | 4.65
15 | Fc1cccc(Cn2cc(CSc3nc4cc(Cl)ccc4s3)nn2)c1 [Compound 6p, 5-Chloro-2-(((1-(3-fluorobenzyl)-1H-1,2,3-triazol-4-yl)methyl)thio)benzo[d]thiazole] | 140 to 141 °C | 4.41
16 | Fc1ccc(Cn2cc(CSc3nc4cc(Cl)ccc4s3)nn2)cc1 [Compound 6q, 5-Chloro-2-(((1-(4-fluorobenzyl)-1H-1,2,3-triazol-4-yl)methyl)thio)benzo[d]thiazole] | 108 to 109 °C | 4.27
17 | Clc1ccc2sc(SCc3cn(Cc4ccccc4)nn3)nc2c1 [Compound 6r, 2-(((1-Benzyl-1H-1,2,3-triazol-4-yl)methyl)thio)-5-chlorobenzo[d]thiazole] | 142 to 144 °C | 4.35
